Test results: US9751851B2, “Molecules and compositions that inhibit gram negative bacteria and their uses” (THE TRUSTEES OF PRINCETON UNIVERSITY, priority 2013, dated 2017)

Assays:
[1] = tested on: P. aeruginosa PA14; assay: Growth of P. aeruginosa monitored by absorbance at 600 nm; type: cell-based
[2] = tested on: P. aeruginosa PA14; assay: C. elegans fast killing infection assay; type: in vivo
Procedure: Methods. C. elegans fast killing assays were conducted with 90 wild-type N2 worms for each condition (30 worms/replicate, 3 replicates performed). C. elegans were propagated on NGM plates prior to eggs being harvested from gravid adults using a standard bleaching protocol (30 mL 5% bleach, 15 mL 5 M KOH, 55 mL dH2O). Harvested eggs were placed on lawns of fresh E. coli HB101 and allowed to grow for 48 hr (to reach the L4 stage) at 20° C. prior to being moved to lawns of P. aeruginosa and placed at 25° C. on sorbitol, glucose, cholesterol plates. Nematodes were scored for survival every hr for 5 hr and again at 24 hr. The % living worms was calculated in triplicate for each time point. 50 μM mBTL or an equivalent volume of DMSO was added to plates and to the bacterial cultures during growth.

[3] = target: T1, LasR (Pseudomonas aeruginosa, UniProt P25084); assay: LasR-GFP assay (rsaL-gfp reporter in recombinant E. coli); type: cell-based, P. aeruginosa
T1 construct: expressed in transfected cells; host or cells: E. coli BL21-Gold (DE3) carrying pET23b-lasR
Procedure: Methods. The LasR-GFP assays were performed in E. coli strain BL21 DE3 Gold (Agilent) carrying pET23b (Novagen) containing lasR (maintained with 100 μg/mL ampicillin) and carrying plasmid pEVS141 (31) containing the rsaL promoter driving expression of gfp (maintained with […] of kanamycin.) The RhlR-GFP assays were performed in E. coli strain BL21 DE3 Gold (Agilent) carrying pET23b (Novagen) containing rhlR (maintained with 100 μg/mL ampicillin) and carrying plasmid pEVS141 containing the rhlA promoter driving expression of gfp (maintained with 50 μg/mL of kanamycin.) These E. coli strains were grown overnight and subcultured into fresh medium with appropriate antibiotics at a 1:100 dilution and grown shaking for 8 hr at 37° C. for the LasR-GFP strain and 12 hr for the RhlR-GFP construct. 50 nM 3OC12-HSL or 20 μM C4-HSL was added to the LasR-GFP and RhlR-GFP preparations, respectively. Compounds were tested at 1 mM for antagonism and at 100 nM or 20 μM for agonism. These concentrations were chosen for agonism studies to match the concentrations of autoinducers used in the experiments. For antagonism studies, the EC95 concentration was used for each receptor. GFP was measured on an Envision plate reader.
The LasR-GFP assays were performed in E. coli strain BL21 DE3 Gold (Agilent) carrying pET23b (Novagen) containing lasR (maintained with 100 μg/mL ampicillin) and carrying plasmid pEVS141 (31) containing the rsaL promoter driving expression of gfp (maintained with 50 μg/mL of kanamycin.) The RhlR-GFP assays were performed in E. coli strain BL21 DE3 Gold (Agilent) carrying pET23b (Novagen) containing rhlR (maintained with 100 μg/mL ampicillin) and carrying plasmid pEVS141 (31) containing the rhlA promoter driving expression of gfp (maintained with 50 μg/mL of kanamycin.) These E. coli strains were grown overnight and subcultured into fresh medium with appropriate antibiotics at a 1:100 dilution and grown shaking for 8 hr at 37° C. for the LasR-GFP strain and 12 hr for the RhlR-GFP construct. 50 nM 3OC12-HSL or 20 μM C4-HSL was added to the LasR-GFP and RhlR-GFP preparations, respectively. Compounds were tested at 1 mM for antagonism and at 100 nM or 20 μM for agonism. These concentrations were chosen for agonism studies to match the concentrations of autoinducers used in our experiments. For antagonism studies, we used the EC95 concentration for each receptor. GFP was measured on an Envision plate reader.

[4] = tested on: P. aeruginosa PA14; assay: Static culture biofilm thickness by confocal microscopy; type: cell-based
Procedure: Static culture. Methods. Overnight P. aeruginosa cultures were back-diluted 1:1000 into tryptone broth with 100 μM mBTL, or an equivalent concentration of DMSO, and grown to mid-logarithmic phase (OD600=0.5). A 96-well plate with glass bottom (Thermo Fisher), which was filled with 200 μL of tryptone broth containing 100 μM mBTL or DMSO, was then inoculated with 2 μL of the mid-logarithmic culture. The 96-well plates were incubated for 24 h, prior to adding 5 μM SYTO 9 nucleic acid stain (Invitrogen). Biofilm thickness was measured using confocal microscopy (Nikon).

T1 sequence (P25084 whole entry): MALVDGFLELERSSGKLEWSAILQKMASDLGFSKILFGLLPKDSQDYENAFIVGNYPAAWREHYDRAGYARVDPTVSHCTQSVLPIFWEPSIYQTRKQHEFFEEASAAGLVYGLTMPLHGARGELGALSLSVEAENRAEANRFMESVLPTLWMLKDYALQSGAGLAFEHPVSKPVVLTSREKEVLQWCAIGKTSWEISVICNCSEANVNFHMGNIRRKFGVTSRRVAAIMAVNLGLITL

meta-bromothiolactone [mBTL]
effect on P. aeruginosa PA14 growth [1]: not affecting P. aeruginosa PA14 growth | C. elegans death ([2]; lasR mutant P. aeruginosa PA14 treated with 50 μM mBTL): 50% | C. elegans death ([2]; wild-type P. aeruginosa PA14 treated with 50 μM mBTL): 23% | inhibition of LasR activation of rsaL-gfp (antagonism) ([3]; mBTL at 1 mM, 3OC12-HSL at EC95): 22% | LasR partial agonism (gfp expression, cognate autoinducer = 100%) ([3]; no autoinducer, compound at 100 nM): 72% | average biofilm height ([4]; lasR null strain, 100 μM mBTL (untreated 15.7+/−4.9)): 6.6+/−2.3 μm | average biofilm height ([4]; lasR, rhlR double null strain, 100 μM mBTL (untreated 11.9+/−5.5)): 16.2+/−5.9 μm | average biofilm height ([4]; rhlR null strain, 100 μM mBTL (untreated 25+/−10.6)): 22.1+/−7.5 μm | average biofilm height ([4]; wild-type, 100 μM mBTL, 24 h (untreated 27.5+/−11.5)): 10+/−4 μm
